Among the data in ChEMBL document CHEMBL6153104, “Discovery of the first potent ROR1 degrader for the treatment of non-small cell lung cancer” (Eur J Med Chem, 2025) are Activity values, retold here.

The target of test [1] is T1, Protein cereblon/Inactive tyrosine-protein kinase transmembrane receptor ROR1 (Homo sapiens) (UniProt Q96SW2+Q01973). Description: PROTAC activity at CRBN/ROR1 in human NCI-H23 cells assessed as induction of ROR1 degradation at 0.1 uM incubated for 24 hrs by Western blot analysis relative to control. The test is classed as cell-based.
Test [2] concerns the target T1, Protein cereblon/Inactive tyrosine-protein kinase transmembrane receptor ROR1 (Homo sapiens). Description: PROTAC activity at CRBN/ROR1 in human NCI-H23 cells assessed as induction of ROR1 degradation at 1 uM incubated for 24 hrs by Western blot analysis relative to control. Type of test: cell-based.

T1 sequence (Q01973 whole entry, looked up): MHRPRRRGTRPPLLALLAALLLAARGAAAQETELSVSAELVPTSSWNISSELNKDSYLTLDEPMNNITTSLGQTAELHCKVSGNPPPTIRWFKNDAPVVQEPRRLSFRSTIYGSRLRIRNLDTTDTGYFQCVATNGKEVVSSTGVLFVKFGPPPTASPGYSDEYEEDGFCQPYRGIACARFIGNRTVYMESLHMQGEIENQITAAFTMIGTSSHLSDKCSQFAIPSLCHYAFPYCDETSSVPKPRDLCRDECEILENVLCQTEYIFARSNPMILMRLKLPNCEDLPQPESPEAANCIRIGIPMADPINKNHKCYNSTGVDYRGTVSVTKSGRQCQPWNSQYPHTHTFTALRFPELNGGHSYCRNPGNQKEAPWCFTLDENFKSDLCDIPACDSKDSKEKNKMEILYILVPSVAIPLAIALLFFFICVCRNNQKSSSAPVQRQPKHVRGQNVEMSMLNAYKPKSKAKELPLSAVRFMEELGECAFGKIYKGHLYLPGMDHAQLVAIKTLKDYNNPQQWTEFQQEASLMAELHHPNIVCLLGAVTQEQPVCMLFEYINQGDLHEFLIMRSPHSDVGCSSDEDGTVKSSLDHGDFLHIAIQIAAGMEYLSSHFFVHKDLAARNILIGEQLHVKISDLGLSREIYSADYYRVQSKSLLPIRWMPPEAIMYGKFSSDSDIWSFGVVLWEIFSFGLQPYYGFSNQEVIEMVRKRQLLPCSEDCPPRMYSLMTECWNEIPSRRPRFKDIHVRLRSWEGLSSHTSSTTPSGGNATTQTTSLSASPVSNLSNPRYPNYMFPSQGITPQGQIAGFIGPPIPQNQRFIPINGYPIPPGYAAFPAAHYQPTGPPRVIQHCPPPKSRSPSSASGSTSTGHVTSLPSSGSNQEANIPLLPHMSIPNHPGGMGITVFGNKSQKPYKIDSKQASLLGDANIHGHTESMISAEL
T1 sequence (Q96SW2 whole entry, looked up): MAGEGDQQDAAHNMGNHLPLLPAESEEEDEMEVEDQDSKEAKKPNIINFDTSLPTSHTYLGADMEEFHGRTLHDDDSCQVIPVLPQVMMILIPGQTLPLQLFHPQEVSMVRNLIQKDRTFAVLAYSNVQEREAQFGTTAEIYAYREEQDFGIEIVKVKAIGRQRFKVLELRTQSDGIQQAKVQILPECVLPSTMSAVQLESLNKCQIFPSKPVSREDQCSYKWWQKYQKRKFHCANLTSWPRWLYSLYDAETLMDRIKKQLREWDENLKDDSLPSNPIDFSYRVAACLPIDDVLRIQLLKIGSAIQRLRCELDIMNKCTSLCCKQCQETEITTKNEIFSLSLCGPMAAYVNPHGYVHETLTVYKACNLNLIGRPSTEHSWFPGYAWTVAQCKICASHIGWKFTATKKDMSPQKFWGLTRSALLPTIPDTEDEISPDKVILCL

With `CCN1CCC(Nc2c(Br)cnc3[nH]c(-c4ccc(N5CCN(CCCNc6ccc7c(c6)C(=O)N(C6CCC(=O)NC6=O)C7=O)CC5)cc4)nc23)CC1` (centres undefined), the Activity in test [1] is 23.2%; in test [2] it was 97.4%.

As for `CCN1CCC(Nc2c(Br)cnc3[nH]c(-c4ccc(N5CCN(C(=O)CCCCCCCNc6ccc7c(c6)C(=O)N(C6CCC(=O)NC6=O)C7=O)CC5)cc4)nc23)CC1` (centres undefined), the Activity in test [1] stood at 30.5%; in test [2], 73.3%.

Turning to `CCN1CCC(Nc2c(Br)cnc3[nH]c(-c4ccc(N5CCN(C(=O)CNc6ccc7c(c6)C(=O)N(C6CCC(=O)NC6=O)C7=O)CC5)cc4)nc23)CC1` (centres undefined), the Activity in test [1] worked out at 0.8%; in test [2], 71%.

For `CCN1CCC(Nc2c(Br)cnc3[nH]c(-c4ccc(N5CCN(C(=O)COc6ccc7c(c6)C(=O)N(C6CCC(=O)NC6=O)C7=O)CC5)cc4)nc23)CC1` (centres undefined), the Activity in test [1] and in test [2] was 0% throughout.

In the case of `CCN1CCC(Nc2c(Br)cnc3[nH]c(-c4ccc(N5CCN(CCNc6ccc7c(c6)C(=O)N(C6CCC(=O)NC6=O)C7=O)CC5)cc4)nc23)CC1` (centres undefined), the figures for the Activity in test [1] and in test [2] were 3.2% and 92.7%, respectively.

As to `CCN1CCC(Nc2c(Br)cnc3[nH]c(-c4ccc(N5CCN(C(=O)CCCCCCCCCOc6cccc7c6C(=O)N(C6CCC(=O)NC6=O)C7=O)CC5)cc4)nc23)CC1` (centres undefined), the Activity in test [1] was 38.7%; in test [2] it was 99.6%.

On to `CCN1CCC(Nc2c(Br)cnc3[nH]c(-c4ccc(N5CCN(C(=O)CCCOc6ccc7c(c6)C(=O)N(C6CCC(=O)NC6=O)C7=O)CC5)cc4)nc23)CC1` (centres undefined), for which the Activity in test [1] is 0%; in test [2], 87.3%.

For `CCN1CCC(Nc2c(Br)cnc3[nH]c(-c4ccc(N5CCN(C(=O)CCCCCNc6ccc7c(c6)C(=O)N(C6CCC(=O)NC6=O)C7=O)CC5)cc4)nc23)CC1` (centres undefined), the Activity is 35.5% in test [1] and 87.2% in test [2].

Regarding `CCN1CCC(Nc2c(Br)cnc3[nH]c(-c4ccc(N5CCN(CCCCCCNc6cccc7c6C(=O)N(C6CCC(=O)NC6=O)C7=O)CC5)cc4)nc23)CC1` (centres undefined), the Activity in test [1] turned out to be 6.1%; in test [2], 96.5%.

With `CCN1CCC(Nc2c(Br)cnc3[nH]c(-c4ccc(N5CCN(C(=O)CCCCCCCCCOc6ccc7c(c6)C(=O)N(C6CCC(=O)NC6=O)C7=O)CC5)cc4)nc23)CC1` (centres undefined), the values for the Activity in test [1] and in test [2] were 0% and 60.5%, respectively.

As to `CCN1CCC(Nc2c(Br)cnc3[nH]c(-c4ccc(N5CCN(CCCCCCNc6ccc7c(c6)C(=O)N(C6CCC(=O)NC6=O)C7=O)CC5)cc4)nc23)CC1` (centres undefined), the Activity in test [1] was determined as 37.6%; in test [2], 89.9%.

Take `CCN1CCC(Nc2c(Br)cnc3[nH]c(-c4ccc(N5CCN(C(=O)CCCCCCCNc6cccc7c6C(=O)N(C6CCC(=O)NC6=O)C7=O)CC5)cc4)nc23)CC1` (centres undefined): the Activity in test [1] was found to be 1.2%; in test [2], 75.3%.

`CCN1CCC(Nc2c(Br)cnc3[nH]c(-c4ccc(N5CCN(C(=O)CCCCCOc6cccc7c6C(=O)N(C6CCC(=O)NC6=O)C7=O)CC5)cc4)nc23)CC1` (centres undefined): the Activity in test [1] and in test [2] was 0% in each case.

Turning to `CCN1CCC(Nc2c(Br)cnc3[nH]c(-c4ccc(N5CCN(C(=O)CCCCCOc6ccc7c(c6)C(=O)N(C6CCC(=O)NC6=O)C7=O)CC5)cc4)nc23)CC1` (centres undefined), the Activity in test [1] and in test [2] was 0% throughout.

`CCN1CCC(Nc2c(Br)cnc3[nH]c(-c4ccc(N5CCN(C(=O)CCCNc6ccc7c(c6)C(=O)N(C6CCC(=O)NC6=O)C7=O)CC5)cc4)nc23)CC1` (centres undefined): the Activity was 11% in test [1] and 46.8% in test [2].

As to `CCN1CCC(Nc2c(Br)cnc3[nH]c(-c4ccc(N5CCN(CCOCCOCCOCCNc6ccc7c(c6)C(=O)N(C6CCC(=O)NC6=O)C7=O)CC5)cc4)nc23)CC1` (centres undefined), the Activity in test [1] came to 0%; in test [2], 73.5%.

For `CCN1CCC(Nc2c(Br)cnc3[nH]c(-c4ccc(N5CCN(CCOCCOCCOCCNc6cccc7c6C(=O)N(C6CCC(=O)NC6=O)C7=O)CC5)cc4)nc23)CC1` (centres undefined), the Activity worked out at 30.4% in test [1] and 93.8% in test [2].
